Earlier results, collected in patent US9492489B2, “Uses of hibiscus, in particular pharmaceutical uses” (NATUREX, priority 2007, dated 2016).

Measured: antibacterial properties in vitro

O=c1c(O)c(-c2ccc(O)c(O)c2)oc2c(O)c(O)cc(O)c12 [gossypetin, 3,5,7,8,3′,4′-hexahydroxy-flavone]
antibacterial properties: Escherichia coli | Staphylococcus aureus | Bacillus subtilis | Bacillus pumpilus | Pseudomonas aeruginosa
